Patent US5834452A, “1- or 6-hydroxylated steroids” (Roussel Uclaf, priority 1996, dated 1998)

Assays:
[1] = target: T1, Human androgen receptor (HAR) (Homo sapiens, UniProt P10275); assay: Relative bond affinity (RBA), recombinant human androgen receptor, charcoal dextran technique; assay type: binding; settings: 24 h at 0° C., Testosterone = 100
T1 construct: made in house; host or cells: SF9 insect cells (baculovirus), lysate supernatant
T1 sequence (P10275 1-920): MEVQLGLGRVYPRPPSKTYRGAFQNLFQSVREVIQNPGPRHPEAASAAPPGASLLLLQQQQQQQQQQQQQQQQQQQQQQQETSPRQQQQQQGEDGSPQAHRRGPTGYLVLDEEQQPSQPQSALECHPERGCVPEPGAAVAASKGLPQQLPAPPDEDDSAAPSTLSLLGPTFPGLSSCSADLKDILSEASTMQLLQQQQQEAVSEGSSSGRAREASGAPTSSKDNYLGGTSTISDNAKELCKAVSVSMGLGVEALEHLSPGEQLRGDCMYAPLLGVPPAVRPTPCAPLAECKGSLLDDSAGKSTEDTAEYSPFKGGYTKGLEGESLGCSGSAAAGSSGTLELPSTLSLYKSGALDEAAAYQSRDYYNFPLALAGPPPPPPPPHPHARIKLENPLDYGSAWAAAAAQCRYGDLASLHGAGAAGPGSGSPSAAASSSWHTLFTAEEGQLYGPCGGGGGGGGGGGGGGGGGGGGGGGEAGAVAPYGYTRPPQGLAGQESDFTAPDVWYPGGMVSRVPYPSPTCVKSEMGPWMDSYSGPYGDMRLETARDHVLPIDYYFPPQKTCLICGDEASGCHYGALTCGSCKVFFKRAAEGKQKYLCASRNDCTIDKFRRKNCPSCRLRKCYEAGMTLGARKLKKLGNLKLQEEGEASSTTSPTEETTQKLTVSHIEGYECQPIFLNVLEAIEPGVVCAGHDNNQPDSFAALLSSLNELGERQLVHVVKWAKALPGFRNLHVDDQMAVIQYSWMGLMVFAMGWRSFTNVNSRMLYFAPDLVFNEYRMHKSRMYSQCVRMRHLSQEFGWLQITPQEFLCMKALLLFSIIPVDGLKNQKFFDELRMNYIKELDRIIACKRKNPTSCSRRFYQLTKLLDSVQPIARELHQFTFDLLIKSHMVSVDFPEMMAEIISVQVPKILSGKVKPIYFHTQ
Experimental: (§1) The human recombinant receptor (HGR, HPR, HAR, HMR, HER) was used.
Human androgen receptor (HAR)
A supernatant of SF9 cells containing the recombinant human androgen receptor was obtained by the process described above for the progestogen receptor using the cDNA fragment containing the region coding for the human androgen receptor. The cells obtained were lysed in the lysis buffer (3). The supernatant was incubated at 0° C. for an incubation time of 24 hours with a constant concentration (T) of tritiated testosterone in the presence of increasing concentrations of either unlabelled testosterone (0 to 1000×10^-9 M), or the unlabelled product to be tested (1 to 25000×10^-9 M). The concentration of bound tritiated testosterone (B) was then measured in each incubate using the charcoal dextran adsorption technique.
Calculation of the relative bond affinity (RBA).
(§2) The following two curves were drawn: the percentage of bound tritiated hormone B/BO as a function of the logarithm of the concentration of unlabelled reference hormone or as a function of the logarithm of the concentration of unlabelled test product. The straight line of the following equation was determined: […]
(§3) The relative bond affinity (RBA) of the test product was determined by the equation: […]

[2] = target: T2, Human glucocorticoid receptor (HGR) (Homo sapiens, UniProt P04150); assay: Relative bond affinity (RBA), recombinant human glucocorticoid receptor, charcoal dextran technique; assay type: binding; settings: 24 h at 0° C.; Dexamethasone = 100
T2 construct: made in house; host or cells: SF9 insect cells (baculovirus), lysate supernatant
T2 sequence (P04150 1-777): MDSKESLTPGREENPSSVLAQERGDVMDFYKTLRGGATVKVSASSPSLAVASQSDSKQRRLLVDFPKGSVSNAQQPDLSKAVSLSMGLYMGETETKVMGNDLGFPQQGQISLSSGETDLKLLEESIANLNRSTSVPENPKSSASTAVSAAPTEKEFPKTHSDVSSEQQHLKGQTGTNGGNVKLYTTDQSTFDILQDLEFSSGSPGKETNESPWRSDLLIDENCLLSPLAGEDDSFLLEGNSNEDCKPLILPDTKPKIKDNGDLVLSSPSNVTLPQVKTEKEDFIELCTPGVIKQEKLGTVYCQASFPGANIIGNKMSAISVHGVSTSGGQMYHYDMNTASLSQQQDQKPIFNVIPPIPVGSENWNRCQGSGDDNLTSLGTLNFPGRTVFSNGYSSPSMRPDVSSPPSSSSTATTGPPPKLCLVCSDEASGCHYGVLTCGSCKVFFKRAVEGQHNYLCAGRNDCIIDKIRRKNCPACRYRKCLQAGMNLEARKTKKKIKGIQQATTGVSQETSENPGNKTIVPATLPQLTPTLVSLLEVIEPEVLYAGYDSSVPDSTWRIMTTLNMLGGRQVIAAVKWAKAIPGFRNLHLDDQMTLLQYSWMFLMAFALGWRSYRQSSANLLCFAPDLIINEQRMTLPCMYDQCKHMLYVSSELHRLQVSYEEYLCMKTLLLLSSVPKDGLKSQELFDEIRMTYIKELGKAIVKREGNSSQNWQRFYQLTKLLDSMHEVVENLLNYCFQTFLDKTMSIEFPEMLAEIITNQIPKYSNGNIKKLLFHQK
Source text: as §1
Human glucocorticoid receptor (HGR):
A supernatant of SF9 cells containing the recombinant human glucocorticoid receptor was obtained by the process described above for the progestogen receptor using the cDNA fragment described by Hollenberg et al (Nature, (1985), Vol. 318 No. 19/26 635) containing the region coding for the human glucocorticoid receptor. The cells obtained were lysed in the lysis buffer (2).
The supernatant was incubated at 0° C. for 24 hours with a constant concentration (T) of tritiated 11β, 17β-dihydroxy-6,21-dimethyl-[…] the presence of increasing concentrations of either unlabelled dexamethasone (0-1000×10^-9 M), or the unlabelled product to be tested (1 to 25000×10^-9 M). The concentration of bound tritiated 11β, 17β-dihydroxy-6,21-dimethyl-Δ^1,4,6 -pregnatriene-20-yn-3-one (B) was then measured in each incubate using the charcoal dextran adsorption technique. […]
as §2, §3

- RBA, Human androgen receptor [1]: 0
- RBA, Human androgen receptor ([1]; listed as product B): no or negligible RBA's
- RBA, Human glucocorticoid receptor [2]: no or negligible RBA's
Structure (SMILES): C[C@H](O)C(=O)[C@@]1(C)CC[C@H]2[C@@H]3C[C@@H](O)C4=CC(=O)CCC4=C3CC[C@@]21C [Product B, [6β, 17β-(S)]-6-hydroxy-17-(2-hydroxy-1-oxopropyl)-17-methyl-Δ^4,9-estradiene-3-one]
